Measured values from PMC11788587, “Validating Low‐Dose Iohexol as a Marker for Glomerular Filtration Rate by In Vitro and In Vivo Studies” (Clinical and Translational Science, 2025).
Like-named read-outs stand apart in the source and are kept apart here.

Columns and labels:
hOCT1 = target: T1, hOCT1 (Homo sapiens, UniProt O15245); test: Inhibition of hOCT1-mediated metformin uptake, stably transfected 293 cells; type: cell-based; settings: substrate 50 µM metformin, median (95% CI)
T1 construct: expressed in transfected cells; host or cells: HEK-293 (293) cells, pEBTetD plasmid, doxycycline-induced
T1 sequence (O15245 1-554): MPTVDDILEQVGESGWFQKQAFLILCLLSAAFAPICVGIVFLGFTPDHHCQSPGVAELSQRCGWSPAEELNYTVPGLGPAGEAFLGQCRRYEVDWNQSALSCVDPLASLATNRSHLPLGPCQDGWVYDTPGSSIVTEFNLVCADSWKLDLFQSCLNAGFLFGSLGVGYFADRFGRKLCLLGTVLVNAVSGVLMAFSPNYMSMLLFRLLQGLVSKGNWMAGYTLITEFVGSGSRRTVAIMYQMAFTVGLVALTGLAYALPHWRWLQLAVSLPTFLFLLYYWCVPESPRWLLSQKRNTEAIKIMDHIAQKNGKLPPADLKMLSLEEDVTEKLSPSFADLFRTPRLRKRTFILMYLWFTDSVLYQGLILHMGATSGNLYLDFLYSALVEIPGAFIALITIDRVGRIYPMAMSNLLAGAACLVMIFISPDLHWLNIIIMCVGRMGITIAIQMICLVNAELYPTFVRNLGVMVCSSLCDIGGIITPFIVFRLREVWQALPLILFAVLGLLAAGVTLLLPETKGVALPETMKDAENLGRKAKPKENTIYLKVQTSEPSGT
Description: (§1) We characterized the inhibitory potential of iohexol on major drug transporters recommended by regulatory agencies, which were previously assessed in a clinical transporter phenotyping cocktail study. These transporters include hOAT1, hOAT3, hOCT1, hOCT2, hMATE1, hMATE2K, human organic anion transporter polypeptides (hOATP)1B1, hOATP1B3, and human multidrug resistance protein (hMDR)1. Additionally, we investigated whether iohexol is a substrate for any of the renal transporters among these, including hOAT1/3, hOCT1/2, and hMATE1/2K. Cell‐based uptake assays were used to assess the activities of hOAT1/3, hOCT1/2, hMATE1/2K, and hOATP1B1/1B3. Inside‐out membrane vesicle uptake assays were used to evaluate the activity of hMDR1.
(§2) To determine the maximal inhibitory potential of iohexol, intracellular accumulation of a standard substrate was measured with and without the clinically relevant highest concentrations of iohexol. Control inhibitors were tested in each experiment.
In all subsequent in vitro studies, control experiments were conducted to validate the results. These included positive controls for substrates and inhibitors, as well as cells either without transporter expression or transfected with an empty vector, and control vesicles. Each condition, including cells or vesicles with the transporter and their respective controls, was analyzed in at least three replicates. For detailed information on materials, methods, and data analysis techniques used, refer to the Supporting Information. […]
R version 4.2.1 (R Foundation for Statistical Computing, Vienna, Austria) was used for statistical evaluations and data visualization. The data analysis approach for the in vitro study was detailed by Hsin CH et al..^1 In brief, for transport assays, the initial uptake rate was calculated by normalizing the substrate concentration to both the protein concentration and the incubation time for each dish or well. The transporter-mediated uptake rate (net uptake) was determined by performing an element-wise subtraction of uptake rates from different conditions. […]

[1] = system: hOAT1/3, hOCT1/2, hMATE1/2K, hOATP1B1/3, and hMDR1; test: Inhibition assays, summary across all transporters; type: cell-based, human
Description: as §1, §2
According to guidelines for assessing TDDIs after intravenous administration, the highest test concentration should be up to 50 times the unbound maximal plasma concentration (Cmax). […]
In all subsequent in vitro studies, control experiments were conducted to validate the results. […] Each condition, including cells or vesicles with the transporter and their respective controls, was analyzed in at least three replicates. […]

[2] = cited from earlier work
[3] = system: rat‐isolated perfused kidney; design: method as in ref 14 Masereeuw et al.; settings: mean ± standard deviation, ref 14 Masereeuw et al., cited from earlier work

CC(=O)N(CC(O)CO)c1c(I)c(C(=O)NCC(O)CO)c(I)c(C(=O)NCC(O)CO)c1I (stereo not shown) [iohexol]
Inhibitory effect (% reduction of specific activity) (hOCT1; 20 mM iohexol): no notable inhibitory effects | inhibition at 1000 µM (hOCT1; HEK293, 1 mM iohexol, read-out: Inhibitory effect (% reduction of specific activity)): -9.8% | inhibition at 20000 µM (hOCT1; HEK293, 20 mM iohexol, read-out: Inhibitory effect (% reduction of specific activity)): -22% | Inhibitor of the transporters (conclusion) ([1]; in vitro, 1–20 mM iohexol): neither a substrate nor a significant inhibitor | Inhibitory effect on transporter-mediated uptake of standard substrates ([1]; iohexol 1 mM and 2 mM): no significant inhibitory effect | Iohexol clearance ([2]; healthy adults, 95% CI 7.08–7.68 L/h, ref 44 Olsson et al.): 7.32 L/h | Median renal clearance ([2]; healthy adults, interquartile range 6.36–7.50, ref 39 Sterner et al.): 6.78 L/h/1.73 m^2 | Volume of distribution ([2]; healthy volunteers): 0.27 L/kg | Ratio of renal clearance to GFR ([3]; perfusate concentration 5 μg/mL): 0.63 ± 0.06 | Ratio of renal clearance to GFR ([3]; perfusate concentration 20 μg/mL): 1.02 ± 0.06
